Measurements taken from ChEMBL document CHEMBL1201862, “PubChem BioAssay data set” (2004).
Calls of active or inactive are those of the source.

Key:
[1] = molecular target: Cyclin-dependent kinase 5/CDK5 activator 1 (Homo sapiens, UniProt Q00535); experiment: CDK5/p35 kinase inhibitors, dose response, biochemical, cherry-picked samples, set 2 (AID 504545)
[2] = molecular target: Scavenger receptor class B member 1 (Mus musculus, UniProt Q61009); experiment: inhibitors of SR-BI mediated HDL lipid uptake, dose response, ldlA[mSR-BI] cells, fluorescence, cherry pick (AID 493194); type: functional, cell-based;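 further: cellular uptake of fluorescent DiI-labeled HDL measured as cell fluorescence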
[3] = molecular target: T1, Tyrosine-protein phosphatase non-receptor type 7 (Homo sapiens, UniProt P35236); type: functional
T1 sequence (P35236 whole entry): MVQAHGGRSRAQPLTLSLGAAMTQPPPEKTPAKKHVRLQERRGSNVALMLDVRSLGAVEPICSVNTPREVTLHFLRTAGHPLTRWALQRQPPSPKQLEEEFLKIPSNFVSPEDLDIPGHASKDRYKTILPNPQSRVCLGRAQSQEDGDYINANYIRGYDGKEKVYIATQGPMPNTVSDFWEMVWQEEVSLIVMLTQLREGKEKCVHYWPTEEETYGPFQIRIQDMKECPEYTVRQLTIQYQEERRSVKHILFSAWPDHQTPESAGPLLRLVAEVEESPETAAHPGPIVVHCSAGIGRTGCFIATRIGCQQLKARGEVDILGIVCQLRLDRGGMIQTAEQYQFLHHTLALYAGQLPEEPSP

[4] = molecular target: Heat shock 70 kDa protein 1A (Homo sapiens, UniProt P0DMV8); experiment: Hsp70 inhibitors, SAR follow-up, biochemical, fluorescence polarization (AID 1072)
[5] = molecular target: T2, Dual specificity protein phosphatase 6 (Rattus norvegicus, UniProt Q64346); type: functional
T2 sequence (Q64346 whole entry): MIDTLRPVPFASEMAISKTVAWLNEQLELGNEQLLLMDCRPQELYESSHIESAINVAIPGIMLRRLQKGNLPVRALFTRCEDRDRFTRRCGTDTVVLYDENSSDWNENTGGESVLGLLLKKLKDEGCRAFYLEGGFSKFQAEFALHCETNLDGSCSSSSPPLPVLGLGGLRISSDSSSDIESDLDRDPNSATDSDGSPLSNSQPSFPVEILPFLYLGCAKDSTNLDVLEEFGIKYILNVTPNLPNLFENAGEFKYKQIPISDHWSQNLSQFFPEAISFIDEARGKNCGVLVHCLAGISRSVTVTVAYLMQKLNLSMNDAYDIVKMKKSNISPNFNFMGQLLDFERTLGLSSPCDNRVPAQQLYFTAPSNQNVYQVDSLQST

[6] = molecular target: Heat shock cognate 71 kDa protein (Homo sapiens, UniProt P11142); experiment: In Vitro Hsc70 Dose Response Fluorescence Polarization Assay. [Related pubchem assays: 1072 ]
[7] = molecular target: Glyceraldehyde-3-phosphate dehydrogenase (Homo sapiens, UniProt P04406)
[8] = molecular target: T2, Dual specificity protein phosphatase 6
Cytochrome P450 2C9 = Cytochrome P450 2C9 (Homo sapiens, UniProt P11712); details: Potency
[9] = molecular target: G2/mitotic-specific cyclin-B1 (Homo sapiens, UniProt P14635); experiment: G2/M cell cycle arrest in HeLa, late-stage follow-up, mechanism study for Wee1 degradation inhibitor project, FACS, panel member Cyclin B Degradation (AID 2088)
Wee1-like protein kinase = Wee1-like protein kinase (Homo sapiens, UniProt P30291); experiment: G2/M cell cycle arrest in HeLa, late-stage follow-up, mechanism study for Wee1 degradation inhibitor project, FACS, panel member Wee1 Degradation (AID 2088)
[10] = molecular target: T3, Voltage-gated N-type calcium channel alpha-1B subunit/Amyloid beta A4 precursor protein-binding family A member 1 (Homo sapiens, UniProt Q00975+Q02410); experiment: disruptors of Mint-PDZ/N-type channel peptide interaction – biochemical, HTRF, set 2, SAR follow-up (AID 434980); type: functional
[11] = molecular target: T3, Voltage-gated N-type calcium channel alpha-1B subunit/Amyloid beta A4 precursor protein-binding family A member 1; experiment: disruptors of Mint-PDZ/N-type channel peptide interaction – biochemical, HTRF, SAR follow-up (AID 2489); type: functional
Streptococcus [12] = experiment: Luminescence Microorganism-Based Dose Response Follow up to Identify Compounds Cytotoxic to Streptococcus. [Related pubchem assays: 1677 (Project Summary), 1915, 1914, 1902 (Retest at Dose), 1900 (Counter Screen), 1662 (Primary HTS)]; type: functional, organism-based
Streptokinase A = molecular target: T4, Streptokinase A (Streptococcus pyogenes serotype M1, UniProt P10520); experiment: S. pyogenes streptokinase expression inhibitors, potency, dose response, plasminogen activation absorbance, OD405 (AID 1914); type: functional, Streptococcus pyogenes M1 GAS;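 further: secreted streptokinase activity via plasminogen activation per viability signal from cell pellet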
T4 sequence (P10520 whole entry): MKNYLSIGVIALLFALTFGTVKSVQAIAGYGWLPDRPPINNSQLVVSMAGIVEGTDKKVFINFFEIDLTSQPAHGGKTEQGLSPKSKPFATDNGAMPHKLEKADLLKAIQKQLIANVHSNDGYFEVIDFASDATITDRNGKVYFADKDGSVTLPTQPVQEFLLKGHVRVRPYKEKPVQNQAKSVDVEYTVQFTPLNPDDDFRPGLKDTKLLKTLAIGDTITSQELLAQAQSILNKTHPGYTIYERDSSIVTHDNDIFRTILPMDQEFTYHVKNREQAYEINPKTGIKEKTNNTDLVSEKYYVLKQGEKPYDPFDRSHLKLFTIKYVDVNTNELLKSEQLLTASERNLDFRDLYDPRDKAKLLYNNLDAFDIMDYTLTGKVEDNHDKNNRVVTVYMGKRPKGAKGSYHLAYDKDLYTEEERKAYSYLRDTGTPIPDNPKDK

Streptococcus [13] = experiment: Group A Streptococcus viability loss, dose response, counter-screen for streptokinase expression inhibitor project, luminescence, BacTiterGlo (AID 1915); type: functional, organism-based;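 further: potency for reduction of bacterial viability or growth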
[14] = tested on: Streptococcus sp. 'group A'; experiment: growth inhibition of control SK(-) GAS strain, dose response, counter-screen for streptokinase expression inhibitor project, luminescence, kanamycin, BacTiterGlo, confirmation (AID 1900); type: functional, organism-based
[15] = HEp-2 cell cytotoxicity, dose response, cytotoxicity control for RSV inhibitor project, HTS (AID 2410); type: functional; details: human respiratory syncytial virus
[16] = molecular target: G-protein coupled receptor 55 (Homo sapiens, UniProt Q9Y2T6); experiment: GPR55 antagonists blocking LPI-driven arrestin recruitment, primary screen, imaging, U2OS, beta-arrestin-GFP, LPI agonist (AID 2013); type: functional;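 further: antagonist potency measured as reduced agonist-driven arrestin aggregation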

T3 sequence (Q00975 whole entry): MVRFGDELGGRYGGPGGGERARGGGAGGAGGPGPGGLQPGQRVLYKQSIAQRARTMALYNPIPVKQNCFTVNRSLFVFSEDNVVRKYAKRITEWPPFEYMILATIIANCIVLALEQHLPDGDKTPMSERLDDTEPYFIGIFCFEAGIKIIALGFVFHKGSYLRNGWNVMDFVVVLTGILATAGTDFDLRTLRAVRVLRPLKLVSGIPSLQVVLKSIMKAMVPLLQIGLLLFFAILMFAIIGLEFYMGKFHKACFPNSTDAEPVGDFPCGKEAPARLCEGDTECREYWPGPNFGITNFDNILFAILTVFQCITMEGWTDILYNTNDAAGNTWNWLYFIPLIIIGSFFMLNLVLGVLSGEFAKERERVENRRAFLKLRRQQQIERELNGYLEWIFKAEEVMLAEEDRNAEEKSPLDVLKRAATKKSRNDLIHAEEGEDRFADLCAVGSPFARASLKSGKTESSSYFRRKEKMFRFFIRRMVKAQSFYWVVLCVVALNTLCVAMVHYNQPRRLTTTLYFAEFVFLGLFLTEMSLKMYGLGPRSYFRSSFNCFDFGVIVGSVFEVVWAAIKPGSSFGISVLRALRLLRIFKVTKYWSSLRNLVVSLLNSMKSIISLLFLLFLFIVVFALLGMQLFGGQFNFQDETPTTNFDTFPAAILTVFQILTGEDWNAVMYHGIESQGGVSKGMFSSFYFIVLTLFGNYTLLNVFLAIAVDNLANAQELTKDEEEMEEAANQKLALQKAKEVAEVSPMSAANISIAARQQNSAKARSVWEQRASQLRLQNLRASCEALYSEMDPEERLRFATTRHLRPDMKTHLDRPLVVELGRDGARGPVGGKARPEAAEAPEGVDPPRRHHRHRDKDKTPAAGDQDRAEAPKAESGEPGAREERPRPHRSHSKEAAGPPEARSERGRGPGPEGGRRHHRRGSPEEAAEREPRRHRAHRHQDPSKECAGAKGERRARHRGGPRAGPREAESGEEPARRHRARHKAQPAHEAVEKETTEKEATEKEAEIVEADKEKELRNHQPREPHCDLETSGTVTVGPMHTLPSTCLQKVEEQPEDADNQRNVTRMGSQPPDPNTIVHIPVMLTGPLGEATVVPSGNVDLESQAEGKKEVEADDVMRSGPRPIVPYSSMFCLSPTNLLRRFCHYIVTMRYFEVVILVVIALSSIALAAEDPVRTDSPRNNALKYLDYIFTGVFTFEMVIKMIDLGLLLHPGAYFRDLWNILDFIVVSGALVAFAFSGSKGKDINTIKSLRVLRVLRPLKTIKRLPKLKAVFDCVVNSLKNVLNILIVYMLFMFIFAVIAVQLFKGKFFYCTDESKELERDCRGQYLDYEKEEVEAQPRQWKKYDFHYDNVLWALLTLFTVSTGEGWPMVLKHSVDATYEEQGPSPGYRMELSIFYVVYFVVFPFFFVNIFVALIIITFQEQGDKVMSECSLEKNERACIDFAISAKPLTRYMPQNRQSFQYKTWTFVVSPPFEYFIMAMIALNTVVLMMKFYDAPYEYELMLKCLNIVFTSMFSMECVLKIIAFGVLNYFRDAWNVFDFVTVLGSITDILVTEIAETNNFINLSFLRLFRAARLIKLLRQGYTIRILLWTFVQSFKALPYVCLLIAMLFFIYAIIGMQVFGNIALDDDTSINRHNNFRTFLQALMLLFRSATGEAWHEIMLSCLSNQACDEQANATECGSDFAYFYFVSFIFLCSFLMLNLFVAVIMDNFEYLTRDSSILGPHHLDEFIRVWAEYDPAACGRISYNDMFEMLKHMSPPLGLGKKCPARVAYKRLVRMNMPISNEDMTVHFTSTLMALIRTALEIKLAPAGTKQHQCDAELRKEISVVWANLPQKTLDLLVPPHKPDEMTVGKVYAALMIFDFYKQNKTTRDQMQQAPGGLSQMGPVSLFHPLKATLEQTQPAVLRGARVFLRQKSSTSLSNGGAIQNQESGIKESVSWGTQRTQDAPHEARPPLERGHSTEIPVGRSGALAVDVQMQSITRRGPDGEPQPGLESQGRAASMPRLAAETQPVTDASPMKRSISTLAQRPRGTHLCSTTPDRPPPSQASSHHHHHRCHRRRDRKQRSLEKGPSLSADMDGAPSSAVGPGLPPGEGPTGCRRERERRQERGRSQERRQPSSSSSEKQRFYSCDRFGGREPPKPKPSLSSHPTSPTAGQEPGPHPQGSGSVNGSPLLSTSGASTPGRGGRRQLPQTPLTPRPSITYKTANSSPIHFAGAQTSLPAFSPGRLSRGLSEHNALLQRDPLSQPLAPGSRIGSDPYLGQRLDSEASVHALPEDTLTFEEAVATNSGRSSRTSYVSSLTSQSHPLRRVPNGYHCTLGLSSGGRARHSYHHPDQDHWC
T3 sequence (Q02410 whole entry): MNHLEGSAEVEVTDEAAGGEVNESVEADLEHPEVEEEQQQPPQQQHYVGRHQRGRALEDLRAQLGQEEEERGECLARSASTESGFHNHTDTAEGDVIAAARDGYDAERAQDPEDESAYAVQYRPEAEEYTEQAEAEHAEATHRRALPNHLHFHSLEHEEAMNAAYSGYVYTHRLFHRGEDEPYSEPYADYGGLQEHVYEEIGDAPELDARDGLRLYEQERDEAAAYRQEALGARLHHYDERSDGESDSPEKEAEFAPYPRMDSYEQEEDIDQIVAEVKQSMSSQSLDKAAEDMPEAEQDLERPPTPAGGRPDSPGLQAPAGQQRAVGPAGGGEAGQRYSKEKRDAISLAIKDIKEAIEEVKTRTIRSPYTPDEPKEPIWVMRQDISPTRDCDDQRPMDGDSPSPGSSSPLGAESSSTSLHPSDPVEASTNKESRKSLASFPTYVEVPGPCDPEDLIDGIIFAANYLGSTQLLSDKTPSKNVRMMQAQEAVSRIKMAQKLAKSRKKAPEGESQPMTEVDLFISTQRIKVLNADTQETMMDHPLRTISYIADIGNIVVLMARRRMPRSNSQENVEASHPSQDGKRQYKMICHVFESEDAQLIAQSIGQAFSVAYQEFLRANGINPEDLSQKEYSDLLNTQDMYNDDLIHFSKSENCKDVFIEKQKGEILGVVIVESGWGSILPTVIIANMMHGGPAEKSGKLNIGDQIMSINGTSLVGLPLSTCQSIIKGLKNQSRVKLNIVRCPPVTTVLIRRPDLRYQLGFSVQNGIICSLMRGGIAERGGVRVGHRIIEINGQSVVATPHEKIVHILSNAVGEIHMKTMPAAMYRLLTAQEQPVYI
Chain of Scavenger receptor class B member 1 (Q61009 whole entry): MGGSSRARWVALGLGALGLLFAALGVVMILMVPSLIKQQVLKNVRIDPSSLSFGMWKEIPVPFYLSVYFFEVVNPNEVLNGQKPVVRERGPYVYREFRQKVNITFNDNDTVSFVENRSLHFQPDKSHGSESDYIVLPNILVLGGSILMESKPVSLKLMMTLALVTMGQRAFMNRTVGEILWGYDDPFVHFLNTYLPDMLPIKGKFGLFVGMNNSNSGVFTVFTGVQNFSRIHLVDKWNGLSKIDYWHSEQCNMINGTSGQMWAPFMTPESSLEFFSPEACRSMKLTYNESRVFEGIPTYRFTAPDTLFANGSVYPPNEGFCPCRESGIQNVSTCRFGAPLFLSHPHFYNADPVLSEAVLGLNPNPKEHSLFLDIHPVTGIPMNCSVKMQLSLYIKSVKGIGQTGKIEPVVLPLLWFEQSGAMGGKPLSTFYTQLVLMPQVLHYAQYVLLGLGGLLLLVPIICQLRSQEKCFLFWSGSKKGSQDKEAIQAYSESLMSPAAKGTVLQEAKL
Chain of Wee1-like protein kinase (P30291 whole entry): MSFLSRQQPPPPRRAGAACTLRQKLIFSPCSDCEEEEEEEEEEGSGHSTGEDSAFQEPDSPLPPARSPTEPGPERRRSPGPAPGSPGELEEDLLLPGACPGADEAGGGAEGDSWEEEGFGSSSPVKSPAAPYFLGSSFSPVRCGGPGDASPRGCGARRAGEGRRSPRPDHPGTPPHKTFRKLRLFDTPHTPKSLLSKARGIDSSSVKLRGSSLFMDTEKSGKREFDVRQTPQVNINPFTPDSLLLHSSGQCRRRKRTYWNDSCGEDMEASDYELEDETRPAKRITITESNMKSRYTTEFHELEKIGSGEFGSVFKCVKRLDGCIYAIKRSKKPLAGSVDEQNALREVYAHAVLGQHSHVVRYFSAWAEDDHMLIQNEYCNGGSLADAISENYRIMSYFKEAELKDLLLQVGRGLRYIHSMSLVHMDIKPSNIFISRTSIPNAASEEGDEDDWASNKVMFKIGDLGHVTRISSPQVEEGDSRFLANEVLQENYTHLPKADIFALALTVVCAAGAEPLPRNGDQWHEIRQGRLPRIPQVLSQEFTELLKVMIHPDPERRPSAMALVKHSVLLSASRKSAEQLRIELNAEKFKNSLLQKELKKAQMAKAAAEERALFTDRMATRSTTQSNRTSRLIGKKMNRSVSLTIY
Chain of Cytochrome P450 2C9 (P11712 whole entry): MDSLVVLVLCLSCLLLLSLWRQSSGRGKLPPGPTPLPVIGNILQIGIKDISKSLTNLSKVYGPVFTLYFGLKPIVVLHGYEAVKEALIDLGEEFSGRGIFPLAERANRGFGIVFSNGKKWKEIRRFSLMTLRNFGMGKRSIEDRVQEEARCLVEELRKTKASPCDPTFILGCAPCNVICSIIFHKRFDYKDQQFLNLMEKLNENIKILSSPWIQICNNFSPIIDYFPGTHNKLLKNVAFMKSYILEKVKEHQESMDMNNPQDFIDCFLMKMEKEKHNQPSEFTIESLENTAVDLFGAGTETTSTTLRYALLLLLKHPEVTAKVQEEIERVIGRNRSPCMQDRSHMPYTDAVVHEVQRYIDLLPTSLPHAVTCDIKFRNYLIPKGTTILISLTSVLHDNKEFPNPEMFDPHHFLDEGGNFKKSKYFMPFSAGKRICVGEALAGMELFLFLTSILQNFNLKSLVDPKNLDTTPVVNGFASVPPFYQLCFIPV

For `Clc1cncc(Cl)c1N/N=C/c1ccncc1`, the AC50 [1] was 52.8 µM (active).

In the case of `Cc1ccc2oc(-c3cccc(NC(=O)c4cc(-n5cnnc5)ccc4Cl)c3)nc2c1`, the AC50 [2] is reported as 8.18 µM (active).

In the case of `COc1ccc2c(c1)C1C=CCC1C(C(=O)O)N2` (centres undefined), the IC50 [3] is reported as 13.2 µM (active), the IC50 [4] is reported as 20.6 µM (active) and the IC50 [5] is reported as 32 µM (active). The IC50 [6] was > 100 µM (not active), the IC50 [7] was > 100 µM (not active) and the IC50 [8] was 33.5 µM (active).

With `CC(C)CCN1CCc2nc(COc3ccccc3)c3c(c2C1)COC(C)C3` (centres undefined) the AC50 (Cytochrome P450 2C9) was 6.31 µM (inconclusive).

In the case of `CCc1ccc(NC(=O)CCCOc2cc(=O)n(C)c3ccccc23)cc1`, the EC50 [9] is reported as > 49.7 µM (inactive) and the EC50 (Wee1-like protein kinase) is reported as > 49.7 µM (inactive).

For `COc1cccc(CCNC(=O)c2cc(-c3ccco3)nc3ccccc23)c1`, the IC50 [10] was > 56.8 µM (inactive) and the IC50 [11] was > 56.8 µM (inactive).

In the case of `CC(C)c1ccc(NC(=O)c2cc(S(=O)(=O)NCC3COc4ccccc4O3)ccc2F)cc1` (centres undefined), the EC50 (Streptococcus [12]) is reported as > 500 µM (not active), the EC50 (Streptokinase A) is reported as 3.53 µM (active) and the EC50 (Streptococcus [13]) is reported as 74.4 µM (active). For the same compound, the EC50 [14] was 12.2 µM (active).

With `COc1ccc(-c2sc(Nc3ccccc3)n[n+]2-c2ccc(F)cc2)c(C)c1C` the CC50 [15] was 28.5 µM (active) and the IC50 [16] was 2.11 µM (active).
